Our source for the IC50 values is patent US20230295119A1, “SUBSTITUTED PYRIDINES FOR THE TREATMENT OF INFLAMMATORY DISEASES” (GOSSAMER BIO SERVICES, INC., priority 2020, published 2023).

Molecules are shown by their SMILES.

One assay addresses TYK2 JH2 domain (Homo sapiens (Human), UniProt P29597). Description: TYK2 JH2 NanoBRET assay. The format is binding. To be noted: Table 20, read-out: TYK2 IC50. The protocol: HEK293T cells were transfected with NanoLuc-TYK2 JH2 Fusion Vector (Promega, customized) using Trans-IT reagent (Mirus, #MIR2700) and incubated for overnight in 37° C. incubator. […] Add 85 µL of cell suspension into white, polypropylene, 96-well plates (Corning, #3600). 90 µL of cells were used for no tracer control samples. 5 µL of diluted NanoBRET K10 tracer (Promega, #CS1810C122) were added to cells to a final concentration of 0.5 µM. Test compounds were diluted into DMSO, and then phenol-free opti-MEM to 10X of final concentration. 10 µL of diluted compounds were added into each well. The cells were incubated with test compound and tracer for 2 hours. 3XNanoBRET® Nano-Glo® Substrate and Extracellular NanoLuc® Inhibitor mixture were prepared and 50 µL of the mixture were added into the wells and mixed. […] NanoBRET signal was determined by using the ratio of acceptor signal and donor signal.
A general note: In BRET a luciferase serves as donor, and the signal depends on an acceptor being close.

The target of the next assay is human JAK1 (Homo sapiens (Human), UniProt P23458). The assay can be described thus: JAK1 TR-FRET kinase assay. Format: biochemical. The following applies: TR-FRET, JAK1 2.5 nM. A general note: TR-FRET usually uses a lanthanide donor and a delayed reading to cut background.
The target of another assay is human JAK2 (Homo sapiens (Human), UniProt O60674). The assay can be described thus: JAK2 TR-FRET kinase assay. Format: biochemical. To be noted: JAK2 0.025 nM.
The next assay deals with human JAK3 (Homo sapiens (Human), UniProt P52333). The assay can be described thus: JAK3 TR-FRET kinase assay. The following applies: JAK3 0.0125 nM. The format is biochemical.
Sequence of human JAK3 (P52333 whole entry): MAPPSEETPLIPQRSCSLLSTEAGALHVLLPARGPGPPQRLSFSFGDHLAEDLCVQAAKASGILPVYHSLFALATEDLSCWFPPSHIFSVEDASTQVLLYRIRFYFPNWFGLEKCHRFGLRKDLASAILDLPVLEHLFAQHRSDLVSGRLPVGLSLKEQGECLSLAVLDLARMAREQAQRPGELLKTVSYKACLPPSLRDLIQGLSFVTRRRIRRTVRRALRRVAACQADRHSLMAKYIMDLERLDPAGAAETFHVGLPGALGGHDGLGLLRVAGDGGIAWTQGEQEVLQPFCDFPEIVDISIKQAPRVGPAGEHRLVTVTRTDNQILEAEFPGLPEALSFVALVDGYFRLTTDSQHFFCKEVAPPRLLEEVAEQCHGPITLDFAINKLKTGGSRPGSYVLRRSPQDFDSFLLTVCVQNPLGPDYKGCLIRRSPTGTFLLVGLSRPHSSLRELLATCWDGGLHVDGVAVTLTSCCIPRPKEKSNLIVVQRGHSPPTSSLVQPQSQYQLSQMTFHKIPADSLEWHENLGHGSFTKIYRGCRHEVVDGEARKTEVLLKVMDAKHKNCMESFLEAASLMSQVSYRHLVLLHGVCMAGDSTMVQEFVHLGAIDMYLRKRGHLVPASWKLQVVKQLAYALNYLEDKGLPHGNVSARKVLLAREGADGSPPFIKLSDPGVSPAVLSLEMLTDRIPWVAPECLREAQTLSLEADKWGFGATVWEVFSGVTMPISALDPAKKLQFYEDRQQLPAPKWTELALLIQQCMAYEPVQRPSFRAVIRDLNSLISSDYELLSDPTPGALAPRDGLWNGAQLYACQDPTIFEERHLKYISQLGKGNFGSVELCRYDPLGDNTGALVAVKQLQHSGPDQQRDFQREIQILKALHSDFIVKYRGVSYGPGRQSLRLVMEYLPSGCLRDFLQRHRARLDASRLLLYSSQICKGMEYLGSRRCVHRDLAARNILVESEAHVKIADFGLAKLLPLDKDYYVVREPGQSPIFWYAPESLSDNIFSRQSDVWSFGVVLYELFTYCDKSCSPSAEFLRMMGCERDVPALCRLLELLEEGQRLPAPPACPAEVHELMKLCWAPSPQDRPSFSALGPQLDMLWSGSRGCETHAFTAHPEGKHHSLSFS

Sequence of TYK2 JH2 domain (P29597 589-875): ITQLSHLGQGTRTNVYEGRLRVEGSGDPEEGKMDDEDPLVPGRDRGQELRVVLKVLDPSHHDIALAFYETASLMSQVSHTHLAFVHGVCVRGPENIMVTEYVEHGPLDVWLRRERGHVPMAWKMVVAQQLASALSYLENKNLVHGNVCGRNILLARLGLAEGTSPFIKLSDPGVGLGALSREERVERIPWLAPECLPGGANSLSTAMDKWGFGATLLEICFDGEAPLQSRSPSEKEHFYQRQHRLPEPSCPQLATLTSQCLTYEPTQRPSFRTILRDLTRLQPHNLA
Sequence of human JAK1 (P23458 whole entry): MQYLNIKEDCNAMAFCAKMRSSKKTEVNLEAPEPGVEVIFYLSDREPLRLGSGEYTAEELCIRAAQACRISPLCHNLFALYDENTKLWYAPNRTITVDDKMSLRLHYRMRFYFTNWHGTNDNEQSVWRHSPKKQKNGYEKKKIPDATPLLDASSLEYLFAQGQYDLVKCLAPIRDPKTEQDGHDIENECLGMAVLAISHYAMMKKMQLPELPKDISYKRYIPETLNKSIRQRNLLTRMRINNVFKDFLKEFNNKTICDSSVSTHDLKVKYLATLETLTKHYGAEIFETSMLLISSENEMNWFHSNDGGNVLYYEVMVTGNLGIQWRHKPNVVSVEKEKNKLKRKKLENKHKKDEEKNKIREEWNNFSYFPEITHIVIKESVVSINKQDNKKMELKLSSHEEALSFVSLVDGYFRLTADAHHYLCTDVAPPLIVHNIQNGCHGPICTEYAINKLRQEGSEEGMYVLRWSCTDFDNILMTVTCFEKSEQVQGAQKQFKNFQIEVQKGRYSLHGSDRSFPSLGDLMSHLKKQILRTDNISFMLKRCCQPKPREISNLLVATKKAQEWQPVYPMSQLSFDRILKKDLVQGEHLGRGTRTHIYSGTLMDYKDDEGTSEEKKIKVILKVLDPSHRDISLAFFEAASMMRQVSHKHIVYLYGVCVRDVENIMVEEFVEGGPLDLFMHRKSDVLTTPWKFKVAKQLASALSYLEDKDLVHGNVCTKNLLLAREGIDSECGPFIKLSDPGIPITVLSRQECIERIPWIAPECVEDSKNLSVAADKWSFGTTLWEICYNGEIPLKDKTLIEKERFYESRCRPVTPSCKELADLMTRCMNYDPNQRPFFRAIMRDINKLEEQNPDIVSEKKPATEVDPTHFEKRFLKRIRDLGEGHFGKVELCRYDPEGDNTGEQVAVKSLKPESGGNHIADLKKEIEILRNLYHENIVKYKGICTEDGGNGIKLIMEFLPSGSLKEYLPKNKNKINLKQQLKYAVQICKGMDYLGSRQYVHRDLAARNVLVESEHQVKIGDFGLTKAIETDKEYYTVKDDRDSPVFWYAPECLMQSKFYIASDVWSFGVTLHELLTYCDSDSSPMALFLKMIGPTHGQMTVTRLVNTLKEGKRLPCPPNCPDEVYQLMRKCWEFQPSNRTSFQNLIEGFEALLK
Sequence of human JAK2 (O60674 whole entry): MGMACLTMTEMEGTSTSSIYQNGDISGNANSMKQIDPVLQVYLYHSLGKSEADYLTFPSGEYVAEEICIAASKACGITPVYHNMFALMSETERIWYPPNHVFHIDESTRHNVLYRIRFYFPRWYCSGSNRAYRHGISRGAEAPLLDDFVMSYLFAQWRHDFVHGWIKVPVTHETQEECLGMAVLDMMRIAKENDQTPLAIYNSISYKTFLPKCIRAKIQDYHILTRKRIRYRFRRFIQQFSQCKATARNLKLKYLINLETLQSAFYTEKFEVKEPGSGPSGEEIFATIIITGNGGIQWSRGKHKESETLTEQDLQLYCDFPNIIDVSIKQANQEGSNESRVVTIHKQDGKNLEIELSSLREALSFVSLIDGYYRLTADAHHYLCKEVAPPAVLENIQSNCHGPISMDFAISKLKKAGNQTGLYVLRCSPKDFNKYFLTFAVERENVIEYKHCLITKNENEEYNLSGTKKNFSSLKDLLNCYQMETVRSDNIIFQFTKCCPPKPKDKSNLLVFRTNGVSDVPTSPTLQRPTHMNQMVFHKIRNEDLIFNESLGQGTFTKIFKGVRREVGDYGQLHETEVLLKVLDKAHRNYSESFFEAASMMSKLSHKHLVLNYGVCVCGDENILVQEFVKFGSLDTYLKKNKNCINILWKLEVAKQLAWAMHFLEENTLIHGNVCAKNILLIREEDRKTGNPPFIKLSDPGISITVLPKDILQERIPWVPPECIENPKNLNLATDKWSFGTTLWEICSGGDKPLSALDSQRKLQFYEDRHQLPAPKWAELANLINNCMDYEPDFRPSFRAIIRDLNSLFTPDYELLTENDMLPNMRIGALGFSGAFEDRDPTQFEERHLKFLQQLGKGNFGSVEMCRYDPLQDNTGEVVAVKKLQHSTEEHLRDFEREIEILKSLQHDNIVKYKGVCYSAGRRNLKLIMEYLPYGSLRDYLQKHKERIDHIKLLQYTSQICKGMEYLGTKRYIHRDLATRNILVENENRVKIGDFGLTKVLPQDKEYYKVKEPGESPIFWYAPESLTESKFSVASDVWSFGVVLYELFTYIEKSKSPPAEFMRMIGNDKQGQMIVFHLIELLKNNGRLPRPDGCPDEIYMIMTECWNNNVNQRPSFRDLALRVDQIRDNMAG

One may read the IC50 as the midpoint of a concentration-inhibition curve. As to `CCC(=O)c1cnc(Nc2ccc(C(=O)N(C)C)cn2)cc1Nc1cccc(-c2ncn(C)n2)c1OC` [Compound 8D], the IC50 on TYK2 JH2 domain is less than 5 nM; on human JAK1, no less than 500 nM; against human JAK2 it was no less than 500 nM; against human JAK3, no less than 500 nM.
As to `CCC(=O)c1cnc(Nc2cc(C(=O)O)ccn2)cc1Nc1cccc(-c2ncn(C)n2)c1OC` [Compound 8E], the IC50 on TYK2 JH2 domain, against human JAK1, on human JAK2 and on human JAK3 was no less than 500 nM throughout.
As for `CCC(=O)c1cnc(Nc2cc(C(N)=O)ccn2)cc1Nc1cccc(-c2ncn(C)n2)c1OC` [Compound 8F], the IC50 was less than 5 nM at TYK2 JH2 domain, no less than 500 nM against human JAK1, no less than 500 nM against human JAK2 and no less than 500 nM at human JAK3.
Turning to `CCC(=O)c1cnc(Nc2cc(C(=O)NC)ccn2)cc1Nc1cccc(-c2ncn(C)n2)c1OC` [Compound 8G], the IC50 at TYK2 JH2 domain is less than 5 nM; on human JAK1, no less than 500 nM; at human JAK2 it was no less than 500 nM; against human JAK3, no less than 500 nM.
In the case of `CCC(=O)c1cnc(Nc2cc(C(=O)N(C)C)ccn2)cc1Nc1cccc(-c2ncn(C)n2)c1OC` [Compound 8H], the IC50 is less than 5 nM at TYK2 JH2 domain, no less than 500 nM against human JAK1, no less than 500 nM at human JAK2 and no less than 500 nM against human JAK3.
On to `CCC(=O)c1cnc(Nc2cccc(C(=O)O)n2)cc1Nc1cccc(-c2ncn(C)n2)c1OC` [Compound 8I], for which the IC50 on TYK2 JH2 domain, at human JAK1, at human JAK2 and against human JAK3 was no less than 500 nM in each case.
For `CCC(=O)c1cnc(Nc2cccc(C(N)=O)n2)cc1Nc1cccc(-c2ncn(C)n2)c1OC` [Compound 8J], the half-maximal inhibitory concentration (IC50) was less than 5 nM on TYK2 JH2 domain, no less than 500 nM against human JAK1, no less than 500 nM against human JAK2 and no less than 500 nM against human JAK3.
Regarding `CCC(=O)c1cnc(Nc2cccc(C(=O)NC)n2)cc1Nc1cccc(-c2ncn(C)n2)c1OC` [Compound 8K], the IC50 at TYK2 JH2 domain was less than 5 nM; on human JAK1 it was no less than 500 nM; on human JAK2 it was no less than 500 nM; against human JAK3, no less than 500 nM.
Turning to `CCC(=O)c1cnc(Nc2cccc(C(=O)N(C)C)n2)cc1Nc1cccc(-c2ncn(C)n2)c1OC` [Compound 8L], the IC50 at TYK2 JH2 domain was 5 to 50 nM; against human JAK1, no less than 500 nM; at human JAK2, no less than 500 nM; against human JAK3, no less than 500 nM.
As for `CCC(=O)c1cnc(Nc2cc(C(N)=O)ncn2)cc1Nc1cccc(-c2ncn(C)n2)c1OC` [Compound 8M], the IC50 at TYK2 JH2 domain is less than 5 nM; against human JAK1 it was no less than 500 nM; on human JAK2, no less than 500 nM; at human JAK3, no less than 500 nM.
On to `CCC(=O)c1cnc(Nc2cc(C(=O)NC)ncn2)cc1Nc1cccc(-c2ncn(C)n2)c1OC` [Compound 8N], for which the IC50 on TYK2 JH2 domain is less than 5 nM; against human JAK1, no less than 500 nM; on human JAK2, no less than 500 nM; on human JAK3 it was no less than 500 nM.
`CCC(=O)c1cnc(Nc2cc(C(=O)N(C)C)ncn2)cc1Nc1cccc(-c2ncn(C)n2)c1OC` [Compound 8O]: the IC50 on TYK2 JH2 domain is less than 5 nM; at human JAK1, no less than 500 nM; on human JAK2, no less than 500 nM; on human JAK3, no less than 500 nM.
Turning to `CCC(=O)c1cnc(Nc2ccc(CN(C)C)cn2)cc1Nc1cccc(-c2ncn(C)n2)c1OC` [Compound 9A, 1-(6-((5-((dimethylamino)methyl)pyridin-2-yl)amino)-4-((2-methoxy-3-(1-methyl-1H-1,2,4-triazol-3-yl)phenyl)amino)pyridin-3-yl)propan-1-one], the IC50 on TYK2 JH2 domain is less than 5 nM; against human JAK1 it was no less than 500 nM; against human JAK2, no less than 500 nM; at human JAK3, no less than 500 nM.
Turning to `CCC(=O)c1cnc(Nc2cnc(CN3CCCC3)cn2)cc1Nc1cccc(-c2ncn(C)n2)c1OC` [Compound 9AAAA], the IC50 was less than 5 nM at TYK2 JH2 domain, no less than 500 nM against human JAK1, no less than 500 nM against human JAK2 and no less than 500 nM against human JAK3.
With `CCC(=O)c1cnc(Nc2ccc([C@H](C)N3CC4(COC4)C3)cn2)cc1Nc1cccc(-c2ncn(C)n2)c1OC` [Compound 9AAA], the IC50 was less than 5 nM on TYK2 JH2 domain, no less than 500 nM against human JAK1, no less than 500 nM on human JAK2 and no less than 500 nM at human JAK3.
Turning to `CCC(=O)c1cnc(Nc2ccc(C(C)NCC(F)F)cn2)cc1Nc1cccc(-c2ncn(C)n2)c1OC` (stereo not shown) [Compound 9AA], the IC50 on TYK2 JH2 domain was less than 5 nM; at human JAK1 it was no less than 500 nM; against human JAK2 it was 50 to 500 nM; against human JAK3 it was 50 to 500 nM.
As to `CCC(=O)c1cnc(Nc2cnc(CN3CCN(C)CC3)cn2)cc1Nc1cccc(-c2ncn(C)n2)c1OC` [Compound 9BBBB], the IC50 is less than 5 nM on TYK2 JH2 domain, no less than 500 nM against human JAK1, no less than 500 nM at human JAK2 and no less than 500 nM at human JAK3.
For the molecule `CCC(=O)c1cnc(Nc2ccc([C@@H](C)N3CC4(COC4)C3)cn2)cc1Nc1cccc(-c2ncn(C)n2)c1OC` [Compound 9BBB], the IC50 is less than 5 nM at TYK2 JH2 domain, no less than 500 nM against human JAK1, 50 to 500 nM against human JAK2 and 50 to 500 nM on human JAK3.
On to `CCC(=O)c1cnc(Nc2ccc(CN(C)CC#N)cn2)cc1Nc1cccc(-c2ncn(C)n2)c1OC` [Compound 9BB], for which the IC50 was 5 to 50 nM on TYK2 JH2 domain, no less than 500 nM against human JAK1, no less than 500 nM at human JAK2 and no less than 500 nM on human JAK3.
In the case of `CCC(=O)c1cnc(Nc2ccc(CN)cn2)cc1Nc1cccc(-c2ncn(C)n2)c1OC` [Compound 9B], the IC50 on TYK2 JH2 domain is less than 5 nM; against human JAK1, no less than 500 nM; against human JAK2, no less than 500 nM; against human JAK3 it was no less than 500 nM.
As to `CCC(=O)c1cnc(Nc2ncc(CN3CCCC3)cc2F)cc1Nc1cccc(-c2ncn(C)n2)c1OC` [Compound 9CCCC], the IC50 on TYK2 JH2 domain was 5 to 50 nM; against human JAK1, no less than 500 nM; at human JAK2, no less than 500 nM; against human JAK3, no less than 500 nM.
On to `CCC(=O)c1cnc(Nc2ccc(CN3CC4(CCOC4)C3)cn2)cc1Nc1cccc(-c2ncn(C)n2)c1OC` [Compound 9CCC], for which the IC50 is less than 5 nM at TYK2 JH2 domain, no less than 500 nM against human JAK1, no less than 500 nM on human JAK2 and no less than 500 nM against human JAK3.
For the molecule `CCC(=O)c1cnc(Nc2ccc(C(N)C(F)(F)F)cn2)cc1Nc1cccc(-c2ncn(C)n2)c1OC` (stereo not shown) [Compound 9CC], the IC50 is less than 5 nM at TYK2 JH2 domain, no less than 500 nM against human JAK1, no less than 500 nM against human JAK2 and no less than 500 nM at human JAK3.
In the case of `CCC(=O)c1cnc(Nc2ccc(CNC)cn2)cc1Nc1cccc(-c2ncn(C)n2)c1OC` [Compound 9C], the IC50 at TYK2 JH2 domain was less than 5 nM; at human JAK1, no less than 500 nM; on human JAK2, no less than 500 nM; against human JAK3 it was no less than 500 nM.
Turning to `CCC(=O)c1cnc(Nc2ncc(CN(C)C)cc2F)cc1Nc1cccc(-c2ncn(C)n2)c1OC` [Compound 9DDDD], the IC50 is 5 to 50 nM at TYK2 JH2 domain, no less than 500 nM against human JAK1, no less than 500 nM against human JAK2 and no less than 500 nM against human JAK3.
Turning to `CCC(=O)c1cnc(Nc2ccc(CN(C)C3COC3)cn2)cc1Nc1cccc(-c2ncn(C)n2)c1OC` [Compound 9DDD], the IC50 on TYK2 JH2 domain was less than 5 nM; against human JAK1, no less than 500 nM; against human JAK2 it was no less than 500 nM; at human JAK3 it was no less than 500 nM.
With `CCC(=O)c1cnc(Nc2ccc(CN3CC(OC)C3)cn2)cc1Nc1cccc(-c2ncn(C)n2)c1OC` [Compound 9DD], the IC50 on TYK2 JH2 domain was less than 5 nM; against human JAK1, no less than 500 nM; against human JAK2, no less than 500 nM; against human JAK3, no less than 500 nM.
For the molecule `CCC(=O)c1cnc(Nc2ccc(CN(C)C)cn2)cc1Nc1cccc(-c2ncc(F)cn2)c1OC` [Compound 9D], the IC50 on TYK2 JH2 domain was 5 to 50 nM; on human JAK1 it was no less than 500 nM; on human JAK2, no less than 500 nM; against human JAK3, no less than 500 nM.
`CCC(=O)c1cnc(Nc2ncc(CNC)cc2F)cc1Nc1cccc(-c2ncn(C)n2)c1OC` [Compound 9EEEE]: the IC50 is 5 to 50 nM at TYK2 JH2 domain, no less than 500 nM against human JAK1, no less than 500 nM against human JAK2 and no less than 500 nM at human JAK3.
As for `CCC(=O)c1cnc(Nc2ccc(CN(C)C3CC(F)(F)C3)cn2)cc1Nc1cccc(-c2ncn(C)n2)c1OC` [Compound 9EEE], the IC50 at TYK2 JH2 domain is less than 5 nM; against human JAK1, no less than 500 nM; at human JAK2, no less than 500 nM; at human JAK3 it was no less than 500 nM.
For `CCC(=O)c1cnc(Nc2ccc(CN3CC(F)C3)cn2)cc1Nc1cccc(-c2ncn(C)n2)c1OC` [Compound 9EE], the IC50 on TYK2 JH2 domain was less than 5 nM; at human JAK1 it was no less than 500 nM; against human JAK2, no less than 500 nM; against human JAK3, 50 to 500 nM.
Take `CCC(=O)c1cnc(Nc2ccc(CN(C)C)cn2)cc1Nc1cc(F)cc(-c2ncn(C)n2)c1OC` [Compound 9E]: the IC50 at TYK2 JH2 domain was less than 5 nM; against human JAK1 it was no less than 500 nM; on human JAK2, no less than 500 nM; against human JAK3 it was no less than 500 nM.
Take `CCC(=O)c1cnc(Nc2cccc(CN3CCCC3)n2)cc1Nc1cccc(-c2ncn(C)n2)c1OC` [Compound 9FFFF]: the IC50 is 5 to 50 nM at TYK2 JH2 domain, no less than 500 nM on human JAK1, no less than 500 nM on human JAK2 and no less than 500 nM against human JAK3.
Regarding `CCC(=O)c1cnc(Nc2ccc(CN)nn2)cc1Nc1cccc(-c2ncn(C)n2)c1OC` [Compound 9FFF], the IC50 on TYK2 JH2 domain is 50 to 500 nM; against human JAK1, no less than 500 nM; at human JAK2 it was no less than 500 nM; at human JAK3 it was no less than 500 nM.
